PubChem BioAssay AID1963854 (Molecular Pharmacology Branch, DTP, NCI, 2024)

Tested on: 186277-243-T-J2-PDC complex spheroid viability
Experiment: Anticancer human tumor 186277-243-T-J2-PDC patient-derived colon adenocarcinoma cell line growth inhibition [POLQ]
Settings: for IC50: curve of first compound; for viability, T/C: stronger effect = lower value
Procedure, shortened: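 Growth inhibition in 3D: complex spheroids (tumor PDC, HUVEC, MSC) treated with POLQ inhibitor combinations; where Cmax unknown, highest tested concentration 10 microM, except SN-38 at 1 microM.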

[1] = second compound 0.0316 µM, first compound 0.0316 µM
[2] = second compound 0.0316 µM, first compound 0.1 µM
[3] = second compound 0.0316 µM, first compound 0.316 µM
[4] = second compound 0.0316 µM, first compound 1 µM
[5] = second compound 0.0316 µM, first compound 3.16 µM
[6] = second compound 0.0316 µM, first compound 10 µM
[7] = second compound 0.1 µM, first compound 0.0316 µM
[8] = second compound 0.1 µM, first compound 0.1 µM
[9] = second compound 0.1 µM, first compound 0.316 µM
[10] = second compound 0.1 µM, first compound 1 µM
[11] = second compound 0.1 µM, first compound 3.16 µM
[12] = second compound 0.1 µM, first compound 10 µM
[13] = second compound 0.316 µM, first compound 0.0316 µM
[14] = second compound 0.316 µM, first compound 0.1 µM
[15] = second compound 0.316 µM, first compound 0.316 µM
[16] = second compound 0.316 µM, first compound 1 µM
[17] = second compound 0.316 µM, first compound 3.16 µM
[18] = second compound 0.316 µM, first compound 10 µM
[19] = second compound 1 µM, first compound 0.0316 µM
[20] = second compound 1 µM, first compound 0.1 µM
[21] = second compound 1 µM, first compound 0.316 µM
[22] = second compound 1 µM, first compound 1 µM
[23] = second compound 1 µM, first compound 3.16 µM
[24] = second compound 1 µM, first compound 10 µM
[25] = second compound 3.16 µM, first compound 0.0316 µM
[26] = second compound 3.16 µM, first compound 0.1 µM
[27] = second compound 3.16 µM, first compound 0.316 µM
[28] = second compound 3.16 µM, first compound 1 µM
[29] = second compound 3.16 µM, first compound 3.16 µM
[30] = second compound 3.16 µM, first compound 10 µM
[31] = second compound 10 µM, first compound 0.0316 µM
[32] = second compound 10 µM, first compound 0.1 µM
[33] = second compound 10 µM, first compound 0.316 µM
[34] = second compound 10 µM, first compound 1 µM
[35] = second compound 10 µM, first compound 3.16 µM
[36] = second compound 10 µM, first compound 10 µM
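Also: spheroids exposed to compounds for seven days.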
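For viability, T/C in this document: 100% = DMSO vehicle control viability.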

## Nc1ccn(C2OC(CO)C(O)C2(F)F)c(=O)n1 (stereo unspecified) + COC1C(OC(N)=O)C(O)C(Oc2ccc3c(O)c(NC(=O)c4ccc(O)c(CC=C(C)C)c4)c(=O)oc3c2C)OC1(C)C
Second compound 0.0316 µM
  IC50: < 31.6 nM
Second compound 0.1 µM
  IC50: < 31.6 nM
Second compound 0.316 µM
  IC50: < 31.6 nM
Second compound 1 µM
  IC50: < 31.6 nM
Second compound 3.16 µM
  IC50: < 31.6 nM
Second compound 10 µM
  IC50: < 31.6 nM
[1]
  viability, T/C: 7.44%
[2]
  viability, T/C: 5.74%
[3]
  viability, T/C: 6.22%
[4]
  viability, T/C: 6.52%
[5]
  viability, T/C: 5.93%
[6]
  viability, T/C: 5.3%
[7]
  viability, T/C: 7.07%
[8]
  viability, T/C: 5.49%
[9]
  viability, T/C: 6.25%
[10]
  viability, T/C: 6.16%
[11]
  viability, T/C: 7.16%
[12]
  viability, T/C: 5.7%
[13]
  viability, T/C: 6.61%
[14]
  viability, T/C: 5.95%
[15]
  viability, T/C: 6.28%
[16]
  viability, T/C: 6.18%
[17]
  viability, T/C: 6.62%
[18]
  viability, T/C: 5.63%
[19]
  viability, T/C: 6.65%
[20]
  viability, T/C: 5.29%
[21]
  viability, T/C: 5.98%
[22]
  viability, T/C: 6.8%
[23]
  viability, T/C: 6.08%
[24]
  viability, T/C: 5.74%
[25]
  viability, T/C: 5.98%
[26]
  viability, T/C: 5.52%
[27]
  viability, T/C: 5.91%
[28]
  viability, T/C: 5.81%
[29]
  viability, T/C: 7.8%
[30]
  viability, T/C: 5.79%
[31]
  viability, T/C: 6.27%
[32]
  viability, T/C: 5.86%
[33]
  viability, T/C: 6.51%
[34]
  viability, T/C: 6.65%
[35]
  viability, T/C: 7.8%
[36]
  viability, T/C: 5.54%

## CC1COCCN1c1cc(-c2ccnn2C)c2ccnc(-c3ccn[nH]3)c2n1 (stereo unspecified) + Nc1ccc(C#CCN(C(=O)Cc2ncc(C(F)(F)F)cc2C(F)(F)F)c2ccc(F)cc2)nn1
Second compound 0.0316 µM
  IC50: 74 nM
Second compound 0.1 µM
  IC50: 75.2 nM
Second compound 0.316 µM
  IC50: 76.3 nM
Second compound 1 µM
  IC50: 76.4 nM
Second compound 3.16 µM
  IC50: 75.8 nM
Second compound 10 µM
  IC50: 71.9 nM
[1]
  viability, T/C: 113%
[2]
  viability, T/C: 27.5%
[3]
  viability, T/C: 10.3%
[4]
  viability, T/C: 7.67%
[5]
  viability, T/C: 6.65%
[6]
  viability, T/C: 7.86%
[7]
  viability, T/C: 115%
[8]
  viability, T/C: 28.8%
[9]
  viability, T/C: 11%
[10]
  viability, T/C: 7.38%
[11]
  viability, T/C: 6.86%
[12]
  viability, T/C: 9.94%
[13]
  viability, T/C: 126%
[14]
  viability, T/C: 26.8%
[15]
  viability, T/C: 9.95%
[16]
  viability, T/C: 7.12%
[17]
  viability, T/C: 6.81%
[18]
  viability, T/C: 9.08%
[19]
  viability, T/C: 124%
[20]
  viability, T/C: 27.5%
[21]
  viability, T/C: 9.34%
[22]
  viability, T/C: 7.54%
[23]
  viability, T/C: 6.88%
[24]
  viability, T/C: 9.31%
[25]
  viability, T/C: 123%
[26]
  viability, T/C: 26.7%
[27]
  viability, T/C: 9.31%
[28]
  viability, T/C: 6.61%
[29]
  viability, T/C: 8.2%
[30]
  viability, T/C: 7.84%
[31]
  viability, T/C: 118%
[32]
  viability, T/C: 22.5%
[33]
  viability, T/C: 9.8%
[34]
  viability, T/C: 7.22%
[35]
  viability, T/C: 6.51%
[36]
  viability, T/C: 7.63%

## CC(=O)O[C@H]1C(=O)[C@@]2(C)[C@H]([C@H](OC(=O)c3ccccc3)[C@]3(O)C[C@H](OC(=O)[C@H](O)[C@@H](NC(=O)c4ccccc4)c4ccccc4)C(C)=C1C3(C)C)[C@]1(OC(C)=O)CO[C@@H]1C[C@@H]2O + Cc1cccc(N(C)C(=O)C2C(O)CCN2c2nc(C)cc(C(F)(F)F)c2C#N)c1
Second compound 0.0316 µM
  IC50: < 9.49 nM
Second compound 0.1 µM
  IC50: < 9.49 nM
Second compound 0.316 µM
  IC50: < 9.49 nM
Second compound 1 µM
  IC50: < 9.49 nM
Second compound 3.16 µM
  IC50: < 9.49 nM
Second compound 10 µM
  IC50: < 9.49 nM
Second compound 0.0316 µM, first compound 0.00949 µM
  viability, T/C: 37.5%
Second compound 0.0316 µM, first compound 0.03 µM
  viability, T/C: 10.3%
Second compound 0.0316 µM, first compound 0.0949 µM
  viability, T/C: 7.26%
Second compound 0.0316 µM, first compound 0.3 µM
  viability, T/C: 5.79%
Second compound 0.0316 µM, first compound 0.949 µM
  viability, T/C: 5.96%
Second compound 0.0316 µM, first compound 3 µM
  viability, T/C: 6.11%
Second compound 0.1 µM, first compound 0.00949 µM
  viability, T/C: 35%
Second compound 0.1 µM, first compound 0.03 µM
  viability, T/C: 10.9%
Second compound 0.1 µM, first compound 0.0949 µM
  viability, T/C: 7.5%
Second compound 0.1 µM, first compound 0.3 µM
  viability, T/C: 5.9%
Second compound 0.1 µM, first compound 0.949 µM
  viability, T/C: 5.52%
Second compound 0.1 µM, first compound 3 µM
  viability, T/C: 6.96%
Second compound 0.316 µM, first compound 0.00949 µM
  viability, T/C: 45.3%
Second compound 0.316 µM, first compound 0.03 µM
  viability, T/C: 10.2%
Second compound 0.316 µM, first compound 0.0949 µM
  viability, T/C: 6.71%
Second compound 0.316 µM, first compound 0.3 µM
  viability, T/C: 5.81%
Second compound 0.316 µM, first compound 0.949 µM
  viability, T/C: 5.53%
Second compound 0.316 µM, first compound 3 µM
  viability, T/C: 5.53%
Second compound 1 µM, first compound 0.00949 µM
  viability, T/C: 34.8%
Second compound 1 µM, first compound 0.03 µM
  viability, T/C: 12.4%
Second compound 1 µM, first compound 0.0949 µM
  viability, T/C: 6.22%
Second compound 1 µM, first compound 0.3 µM
  viability, T/C: 5.71%
Second compound 1 µM, first compound 0.949 µM
  viability, T/C: 5.47%
Second compound 1 µM, first compound 3 µM
  viability, T/C: 5.47%
Second compound 3.16 µM, first compound 0.00949 µM
  viability, T/C: 27.2%
Second compound 3.16 µM, first compound 0.03 µM
  viability, T/C: 10.5%
Second compound 3.16 µM, first compound 0.0949 µM
  viability, T/C: 6.13%
Second compound 3.16 µM, first compound 0.3 µM
  viability, T/C: 5.47%
Second compound 3.16 µM, first compound 0.949 µM
  viability, T/C: 5.6%
Second compound 3.16 µM, first compound 3 µM
  viability, T/C: 5.16%
Second compound 10 µM, first compound 0.00949 µM
  viability, T/C: 20.3%
Second compound 10 µM, first compound 0.03 µM
  viability, T/C: 6.86%
Second compound 10 µM, first compound 0.0949 µM
  viability, T/C: 5.75%
Second compound 10 µM, first compound 0.3 µM
  viability, T/C: 5.46%
Second compound 10 µM, first compound 0.949 µM
  viability, T/C: 5.93%
Second compound 10 µM, first compound 3 µM
  viability, T/C: 6.1%
